Laboratory results taken from ChEMBL document CHEMBL1201862, “PubChem BioAssay data set” (2004).
Activity calls are given as the source filed them.

Tests used:
[1] = biological target: Acylamino-acid-releasing enzyme (Homo sapiens, UniProt P13798); assay: PME-1 inhibitor potency by in-gel ABPP, dose response, selectivity assay for PME-1 inhibitor project, cell lysate, mouse brain cytosol, FP-rhodamine, panel member APEH Assay Panel member description: Inhibition of N-acylaminoacyl-peptide hydrolase (APEH) (anti-target) (AID 2366)
[2] = biological target: Melanin-concentrating hormone receptor 1 (Homo sapiens, UniProt Q99705); assay: Late-stage fluorescence-based counterscreen for antagonists of the G-protein coupled receptor 7 (GPR7): cell-based dose response assay to identify antagonists of the melanin-concentrating hormone receptor 1 (MCHR1). [Related pubchem assays (depositor defined):AID1861, AID1880, AID1952, AID2148, AID2251, AID2257, AID485339]; format: functional;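 note: stimulated with 30 nM MCH peptide agonist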
[3] = biological target: T1, Neuropeptides B/W receptor type 1 (Homo sapiens, UniProt P48145); assay: GPR7 antagonist potency, late-stage follow-up, cell-based, fluorescence, dose response (AID 463251); format: functional
T1 sequence (P48145 whole entry): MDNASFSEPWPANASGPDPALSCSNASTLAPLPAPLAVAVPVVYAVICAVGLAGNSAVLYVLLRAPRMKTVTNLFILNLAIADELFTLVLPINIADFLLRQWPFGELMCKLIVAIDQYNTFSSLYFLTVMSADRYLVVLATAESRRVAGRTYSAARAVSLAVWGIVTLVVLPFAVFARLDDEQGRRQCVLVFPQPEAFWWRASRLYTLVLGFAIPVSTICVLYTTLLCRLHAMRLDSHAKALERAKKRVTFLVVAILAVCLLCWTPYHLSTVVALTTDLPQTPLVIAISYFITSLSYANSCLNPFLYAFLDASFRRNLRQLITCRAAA

[4] = biological target: T2, Heat shock factor protein 1 (Mus musculus, UniProt P38532); assay: inhibition of MG132-induced HSE-luciferase signal, confirmation, cell-based, NIH3T3, luminescence, dose retest (AID 2382); format: functional;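 note: NIH3T3 fibroblasts with HSF1-driven luciferase reporter stressed by proteasome inhibitor MG132; luminescence from HSF1-driven luciferase expression after 8 hours of MG132 stress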
T2 sequence (P38532 whole entry): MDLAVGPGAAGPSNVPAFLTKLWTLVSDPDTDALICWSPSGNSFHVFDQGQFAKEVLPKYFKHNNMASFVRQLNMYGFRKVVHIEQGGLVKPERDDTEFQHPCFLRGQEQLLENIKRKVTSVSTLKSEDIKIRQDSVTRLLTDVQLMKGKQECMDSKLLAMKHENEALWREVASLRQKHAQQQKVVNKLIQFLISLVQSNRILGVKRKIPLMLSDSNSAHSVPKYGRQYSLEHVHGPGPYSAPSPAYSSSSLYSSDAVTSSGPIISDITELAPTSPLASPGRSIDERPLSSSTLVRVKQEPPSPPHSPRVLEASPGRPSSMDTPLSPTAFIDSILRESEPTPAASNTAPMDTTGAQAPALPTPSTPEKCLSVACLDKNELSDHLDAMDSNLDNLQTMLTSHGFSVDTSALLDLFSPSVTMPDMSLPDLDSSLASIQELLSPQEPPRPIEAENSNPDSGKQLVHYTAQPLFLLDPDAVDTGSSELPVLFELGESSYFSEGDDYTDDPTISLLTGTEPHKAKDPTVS

Caspase-7 = biological target: T3, Caspase-7 (Homo sapiens, UniProt P55210); assay: procaspase-7 activators, dose response, counter-screen for procaspase-3 activator project, biochemical, absorbance (AID 489013)
T3 sequence (P55210 whole entry): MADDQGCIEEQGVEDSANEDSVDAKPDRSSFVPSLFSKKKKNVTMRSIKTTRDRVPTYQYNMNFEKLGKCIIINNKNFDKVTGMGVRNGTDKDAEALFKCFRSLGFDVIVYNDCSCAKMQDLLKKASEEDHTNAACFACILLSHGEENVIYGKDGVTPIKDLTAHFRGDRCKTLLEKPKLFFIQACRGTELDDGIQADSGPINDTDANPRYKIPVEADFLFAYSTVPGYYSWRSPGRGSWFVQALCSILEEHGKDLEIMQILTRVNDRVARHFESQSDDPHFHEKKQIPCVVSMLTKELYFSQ

Caspase-3 = biological target: T4, Caspase-3 (Homo sapiens, UniProt P42574); assay: procaspase-3 activators, dose response, biochemical, absorbance (AID 489014)
T4 sequence (P42574 whole entry): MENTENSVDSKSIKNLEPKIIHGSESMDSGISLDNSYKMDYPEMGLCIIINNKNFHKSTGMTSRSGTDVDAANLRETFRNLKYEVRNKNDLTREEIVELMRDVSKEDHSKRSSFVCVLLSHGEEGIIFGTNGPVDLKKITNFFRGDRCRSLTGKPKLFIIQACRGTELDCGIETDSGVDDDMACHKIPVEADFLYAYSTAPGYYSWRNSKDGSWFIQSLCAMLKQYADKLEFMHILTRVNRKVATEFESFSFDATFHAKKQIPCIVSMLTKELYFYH

[5] = cytotoxicity toward NIH3T3 fibroblasts, dose response, counter-screen, cell-based, ATP luminescence, mouse fibroblasts (AID 2010); format: functional;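 note: cells exposed to compound for about 90 hours before reading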
[6] = biological target: E3 ubiquitin-protein ligase Mdm2 (Homo sapiens, UniProt Q00987); assay: enhancers of MDM2-luciferase reporter signal, concentration-effect titration, project on inhibitors of MDM2 ubiquitin ligase, cellular assay, luminescent readout, 384-well plate format (AID 1394); format: functional;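 note: MDM2 E3 inhibitors raise luminescence so EC50 is for signal enhancement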
cells [7] = format: functional, cell-based
Streptokinase A = biological target: T5, Streptokinase A (Streptococcus pyogenes serotype M1, UniProt P10520); assay: S. pyogenes streptokinase expression inhibitors, potency, dose response, plasminogen activation absorbance, OD405 (AID 1914); format: functional, Streptococcus pyogenes M1 GAS;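 note: secreted streptokinase activity via plasminogen activation per viability signal from cell pellet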
T5 sequence (P10520 whole entry): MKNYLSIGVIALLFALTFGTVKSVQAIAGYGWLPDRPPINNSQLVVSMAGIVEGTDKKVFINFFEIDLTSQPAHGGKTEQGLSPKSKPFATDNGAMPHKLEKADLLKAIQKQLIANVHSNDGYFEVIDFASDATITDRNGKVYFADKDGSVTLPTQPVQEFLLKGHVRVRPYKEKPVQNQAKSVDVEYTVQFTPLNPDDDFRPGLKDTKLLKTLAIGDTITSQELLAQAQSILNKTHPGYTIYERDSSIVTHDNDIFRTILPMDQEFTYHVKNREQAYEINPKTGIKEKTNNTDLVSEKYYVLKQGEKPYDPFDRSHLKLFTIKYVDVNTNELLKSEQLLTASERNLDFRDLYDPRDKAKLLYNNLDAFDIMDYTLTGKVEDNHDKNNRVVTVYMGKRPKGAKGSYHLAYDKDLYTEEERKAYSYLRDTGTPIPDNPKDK

[8] = biological target: T6, Kappa-type opioid receptor (Homo sapiens, UniProt P41145); format: functional
cells [9] = assay: cells
[10] = system: Streptococcus sp. 'group A'; assay: growth inhibition of control SK(-) GAS strain, dose response, counter-screen for streptokinase expression inhibitor project, luminescence, kanamycin, BacTiterGlo, confirmation (AID 1900); format: functional, organism-based
Beta-galactosidase = Beta-galactosidase (Escherichia coli, UniProt Q8VNN2); format: functional
[11] = biological target: T6, Kappa-type opioid receptor; format: functional; remark: listed apart in the source
Streptococcus = assay: Group A Streptococcus viability loss, dose response, counter-screen for streptokinase expression inhibitor project, luminescence, BacTiterGlo (AID 1915); format: functional, organism-based;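 note: potency for reduction of bacterial viability or growth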
[12] = inhibitors of intracellular T. cruzi replication, confirmation, NIH3T3 host cells, beta-gal luminescence (AID 2044); format: functional, cell-based;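 note: intracellular parasites grown in NIH/3T3 mouse fibroblasts as host cells; luminescent beta-galactosidase reporter signal from transgenic T. cruzi replicating inside host cells; inhibitors lower the luminescence signal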
cells [13] = format: functional, cell-based; remark: listed apart in the source

Acylamino-acid-releasing enzyme, sequence (P13798 whole entry): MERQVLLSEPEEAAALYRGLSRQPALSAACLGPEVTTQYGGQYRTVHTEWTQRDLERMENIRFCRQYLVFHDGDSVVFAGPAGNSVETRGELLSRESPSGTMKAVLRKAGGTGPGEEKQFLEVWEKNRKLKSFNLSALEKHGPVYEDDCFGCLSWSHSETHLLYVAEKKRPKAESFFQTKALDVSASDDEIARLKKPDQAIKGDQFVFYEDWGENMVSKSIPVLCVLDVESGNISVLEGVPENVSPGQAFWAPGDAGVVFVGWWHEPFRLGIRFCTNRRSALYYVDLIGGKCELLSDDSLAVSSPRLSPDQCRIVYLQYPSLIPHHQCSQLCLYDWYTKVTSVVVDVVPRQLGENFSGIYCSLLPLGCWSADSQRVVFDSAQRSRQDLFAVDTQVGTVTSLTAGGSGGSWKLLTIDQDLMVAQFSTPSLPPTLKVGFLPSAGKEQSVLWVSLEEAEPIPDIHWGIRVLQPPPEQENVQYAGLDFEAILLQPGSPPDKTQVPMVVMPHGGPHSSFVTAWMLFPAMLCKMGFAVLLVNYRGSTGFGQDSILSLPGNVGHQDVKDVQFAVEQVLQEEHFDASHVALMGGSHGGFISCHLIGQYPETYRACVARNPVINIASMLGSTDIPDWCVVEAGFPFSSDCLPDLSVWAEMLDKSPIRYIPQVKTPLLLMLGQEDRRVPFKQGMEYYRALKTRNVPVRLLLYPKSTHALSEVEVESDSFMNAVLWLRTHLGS
T6 sequence (P41145 whole entry): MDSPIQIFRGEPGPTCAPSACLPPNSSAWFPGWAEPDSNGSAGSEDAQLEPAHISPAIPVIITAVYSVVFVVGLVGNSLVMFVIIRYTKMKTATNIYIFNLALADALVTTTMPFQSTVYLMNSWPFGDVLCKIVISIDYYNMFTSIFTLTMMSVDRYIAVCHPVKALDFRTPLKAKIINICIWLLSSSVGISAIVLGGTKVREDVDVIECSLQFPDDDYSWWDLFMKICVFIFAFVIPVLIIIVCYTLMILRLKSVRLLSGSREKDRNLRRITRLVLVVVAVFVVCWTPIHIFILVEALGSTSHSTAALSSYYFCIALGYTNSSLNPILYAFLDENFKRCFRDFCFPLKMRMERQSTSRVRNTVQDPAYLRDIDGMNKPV
E3 ubiquitin-protein ligase Mdm2, sequence (Q00987 whole entry): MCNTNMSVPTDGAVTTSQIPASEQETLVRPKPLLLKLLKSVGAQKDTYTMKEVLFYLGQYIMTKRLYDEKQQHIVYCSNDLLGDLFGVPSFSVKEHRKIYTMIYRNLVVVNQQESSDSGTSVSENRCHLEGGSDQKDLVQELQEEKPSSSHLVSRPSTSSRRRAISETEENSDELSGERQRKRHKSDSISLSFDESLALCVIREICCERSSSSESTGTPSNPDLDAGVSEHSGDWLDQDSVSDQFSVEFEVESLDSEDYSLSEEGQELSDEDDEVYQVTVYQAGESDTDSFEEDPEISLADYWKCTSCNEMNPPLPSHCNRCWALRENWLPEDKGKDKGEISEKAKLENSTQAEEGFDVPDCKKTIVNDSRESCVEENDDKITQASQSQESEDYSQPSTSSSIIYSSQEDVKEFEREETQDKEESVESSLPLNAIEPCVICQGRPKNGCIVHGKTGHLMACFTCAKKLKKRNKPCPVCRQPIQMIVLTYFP
Beta-galactosidase, sequence (Q8VNN2 whole entry): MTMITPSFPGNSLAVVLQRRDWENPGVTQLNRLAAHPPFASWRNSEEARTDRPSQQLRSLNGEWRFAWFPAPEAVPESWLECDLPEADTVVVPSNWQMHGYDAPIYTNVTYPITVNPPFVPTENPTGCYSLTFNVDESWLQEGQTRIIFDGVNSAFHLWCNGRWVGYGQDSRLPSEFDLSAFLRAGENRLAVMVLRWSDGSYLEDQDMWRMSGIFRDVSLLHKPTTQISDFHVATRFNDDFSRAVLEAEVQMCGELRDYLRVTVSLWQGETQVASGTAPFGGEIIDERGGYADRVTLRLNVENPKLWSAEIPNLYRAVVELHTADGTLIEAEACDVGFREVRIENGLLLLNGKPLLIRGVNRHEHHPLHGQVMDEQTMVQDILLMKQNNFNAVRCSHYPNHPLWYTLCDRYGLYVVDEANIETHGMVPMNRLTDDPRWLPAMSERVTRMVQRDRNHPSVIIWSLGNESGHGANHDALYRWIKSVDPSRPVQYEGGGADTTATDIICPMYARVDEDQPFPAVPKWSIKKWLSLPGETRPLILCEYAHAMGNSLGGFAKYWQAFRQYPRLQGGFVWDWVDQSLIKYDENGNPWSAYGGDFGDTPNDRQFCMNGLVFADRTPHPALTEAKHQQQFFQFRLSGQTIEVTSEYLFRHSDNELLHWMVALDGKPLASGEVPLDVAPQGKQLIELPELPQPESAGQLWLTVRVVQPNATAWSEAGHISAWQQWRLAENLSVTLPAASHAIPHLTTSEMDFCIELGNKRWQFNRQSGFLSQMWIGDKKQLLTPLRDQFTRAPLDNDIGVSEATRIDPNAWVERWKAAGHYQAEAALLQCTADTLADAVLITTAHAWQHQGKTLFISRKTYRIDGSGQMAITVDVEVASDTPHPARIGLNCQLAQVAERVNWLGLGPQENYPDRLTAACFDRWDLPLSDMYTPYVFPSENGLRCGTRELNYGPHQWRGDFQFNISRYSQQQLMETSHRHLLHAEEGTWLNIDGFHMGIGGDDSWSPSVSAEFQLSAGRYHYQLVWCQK
Melanin-concentrating hormone receptor 1, sequence (Q99705 whole entry): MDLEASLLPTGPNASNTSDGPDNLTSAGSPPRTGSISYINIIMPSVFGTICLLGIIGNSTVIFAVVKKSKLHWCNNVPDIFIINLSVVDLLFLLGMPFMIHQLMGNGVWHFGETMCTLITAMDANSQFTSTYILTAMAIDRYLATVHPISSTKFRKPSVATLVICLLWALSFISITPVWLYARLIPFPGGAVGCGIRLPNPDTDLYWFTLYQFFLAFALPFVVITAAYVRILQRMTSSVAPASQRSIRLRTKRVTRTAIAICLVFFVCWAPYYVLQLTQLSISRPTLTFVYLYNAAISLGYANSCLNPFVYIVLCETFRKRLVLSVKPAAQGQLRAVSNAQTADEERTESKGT

## CS(=O)(=O)/C(C#N)=C/c1cccn1S(=O)(=O)c1ccc([N+](=O)[O-])cc1
[1]
  IC50: > 50 µM (inactive)

## O=C(C1CCCCN1Cc1ccc2ccccc2c1)N1CCN(c2ccc([N+](=O)[O-])cc2)CC1 (centres undefined)
[2]
  IC50: 3.1 µM (active)
[3]
  IC50: 4.1 µM (active)

## N#C/C(=C\c1cccn1S(=O)(=O)c1ccccc1)S(=O)(=O)c1ccc(F)cc1
[1]
  IC50: > 50 µM (inactive)

## Cc1c(Cc2ccccc2)sc(/N=C/c2c(O)ccc3ccccc23)c1C(N)=O
[4]
  EC50: > 195 µM (not active)
Caspase-7
  EC50: > 85.3 µM (inactive)
Caspase-3
  EC50: > 85.3 µM (inactive)

## c1ccc(CSC2=NNC(c3ccccn3)S2)cc1 (centres undefined)
[5]
  EC50: > 60 µM (not active)
[6]
  EC50: 12.4 µM (not active)
Cells [7]
  EC50: > 350 µM (not active)
Streptokinase A
  EC50: > 150 µM (not active)
[8]
  IC50: > 32 µM
Cells [9]
  EC50: 1.73 µM (active)
[10]
  EC50: 0.799 µM (active)
Beta-galactosidase
  EC50: > 31.5 µM (inactive)
[11]
  IC50: > 31.5 µM (inactive)
Streptococcus
  EC50: > 150 µM (not active)
[12]
  EC50: < 0.1 µM (active)
Cells [13]
  EC50: 66.9 µM (active)
